# In patent US20260193296A1 (priority 2023, published 2026):
# Read-outs that look alike come from different tables or passages of the source. Ends that are not written are not given here.
# Legend:
# [1] = tested on: Huanglongbing pathogen CLas; format: cell-based, Candidatus Liberibacter asiaticus (CLas); details: for CLas titer in infected leaf midribs: 1 μM artificially synthesized peptide; for number of pathogens in citrus infected with Huanglongbing: summary statement, demonstrated by experiments
# CLas cells = format: cell-based, Candidatus Liberibacter asiaticus (CLas); details: for lysis of Huanglongbing pathogens: summary statement, demonstrated by experiments
# Huanglongbing pathogens = format: in vivo, citrus (Chunmi orange); details: field, whole plant, same injection method, two months after treatment; FIG. 6
# [2] = tested on: Huanglongbing pathogen CLas; format: cell-based, Candidatus Liberibacter asiaticus (CLas); details: for inhibitory effect on CLas after heat pretreatment: used at 1 μM, 48 h, compared with BSA, FIG. 4D
# [3] = tested on: Huanglongbing pathogen CLas; details: for IC50: read-out: CLas half inhibitory concentration (IC50), treated for 48 hours, FIG. 4C
# [4] = tested on: Huanglongbing pathogen CLas; format: in vivo, Candidatus Liberibacter asiaticus (CLas)
Sequence,"CLas titer in infected leaf midribs ([1]; 48 h, FIG. 4A)",number of pathogens in citrus infected with Huanglongbing [1],lysis of Huanglongbing pathogens (CLas cells),further results
"DPMIWGYVMLNDSK [AMP-β, variant containing conserved β-sheet region; synthesized and also made by prokaryotic expression]",significantly reduce the CLas titer,reduce the number of pathogens,promote lysis of Huanglongbing pathogens,–
"DPMIWGYVMLSESKDPMIWGYVMLNDSK [AMP-2β, dimer of β-sheet fragments obtained by prokaryotic expression and purification]",–,reduce the number of pathogens,promote lysis of Huanglongbing pathogens,–
"DPMIWGYVMLNDRLSK [AMP9-16, truncated peptide of AMP9]",significantly reduce the CLas titer,reduce the number of pathogens,promote lysis of Huanglongbing pathogens,–
"MKKVKNIFHKIANADPMIWGYVML [AMP3-24, truncated peptide of AMP3]",–,reduce the number of pathogens,promote lysis of Huanglongbing pathogens,–
"MKKVKNIFHKIANA [AMP-α, contains only an α-helix fragment]",not able to change the CLas titer,–,–,–
MKKVKNIFHKIANADPMIWGYVMLNDRLSK [AMP9],significantly reduce the CLas titer,reduce the number of pathogens,promote lysis of Huanglongbing pathogens,–
"DPMIWGYVMLSESK [AMP3-14, DPMIWGYVMLSESK]",significantly reduce the CLas titer,reduce the number of pathogens,promote lysis of Huanglongbing pathogens,"growth of new citrus leaves (Huanglongbing pathogens): significantly promote the growth of new citrus leaves; thermal stability ([2]; 35° C. and 45° C. for 20 hours): good thermal stability; inhibitory effect on CLas after heat pretreatment ([2]; pretreated at 35° C. for 20 hours): still significant; inhibitory effect on CLas after heat pretreatment ([2]; pretreated at 45° C. for 20 hours): still significant; effectiveness in reducing the CLas titer compared with AMP3 ([3]; from IC50 values at 48 hours): more effective in reducing the CLas titer; IC50 [3]: 1 µM; CLas titer in infected leaf veins ([1]; 100 nM artificially synthesized peptide, 48 h, FIG. 4A): significantly reduce the CLas titer; symptoms of yellowing in leaves of infected plants ([4]; 1 μM solution, continuous trunk infusion, 6 months, FIG. 5B): disappeared; Ct value of CLas in infected plants ([4]; 1 μM solution, continuous trunk infusion, 6 months, FIG. 5C): not significantly different from that of healthy plants; Ct value of CLas in treated plants after removal of treatment ([4]; treatment removed after 7 months, titer monitored continuously): still not significantly different from that of healthy plants; destruction of pathogenic cells compared with AMP3 (transmission electron microscope) (CLas cells; 1 μM, 24 hours, FIG. 7): better effect on the destruction of pathogenic cells"
MKKVKNIFHKIANADPMIWGYVMLSESK [AMP3],significantly reduce the CLas titer,reduce the number of pathogens,promote lysis of Huanglongbing pathogens,IC50 [3]: 52.1 µM
